Data reported in EP1095657A2, “Compositions for the regulation of cytokine activity” (priority 1992, dated 1994).

Tests used:
[1] = test system: adjuvant arthritis in Lewis rats; test: Adjuvant arthritis (AA) in rats; format: in vivo
[2] = test system: mortality after gamma irradiation; test: Radioprotective effect in gamma-irradiated mice; format: in vivo, BALB/c mice
Experimental: Groups of female BALB/c mice, 8 weeks old, 5-10 mice per group, were injected subcutaneously with either saline (0.1 ml, control), H-9392 (30 ng/mouse), or glucosamine (10,000 ng/mouse) 1 day before irradiation, and weekly thereafter until termination of the experiment on day 30. All the mice were irradiated to a dose of 700 rads using a ^60Co gamma radiation source.
In a separate experiment, groups of BALB/c mice (5 mice to a group) were likewise exposed to 750 rads of gamma-rays, except that these groups of mice were treated with test substances (saline at 0.1 ml per mouse; H-9392 at 0.3, 3, 30 and 300 ng/mouse; and glucosamine at 1, 10 and 100 µg/mouse) on the day before irradiation, on the sixth day after irradiation, and once again on the thirteenth day after irradiation only. All treatment ceased after the third and last administration.

[3] = test system: experimental DTH reaction in mice; test: In vivo bioassay of inhibition of experimental DTH reactivity (oxazolone ear swelling); parameters: species or system mice (BALB/c or CD1); key to effect on the experimental DTH reaction (monosaccharides): "N.E." indicates that no effect was observed at the tested dosage range of 0.000004-4 µg/gm mouse; settings: for DTH: at that dose, value in parentheses in the cell taken as positive control, not reported; for effect on the experimental DTH reaction (monosaccharides): dosage range of 0.000004-4 µg/gm mouse
Experimental: Groups of inbred BALB/c (Jackson Laboratories, Bar Harbor, ME) or of outbred CD1 (Weizmann Institute Animal Breeding Center, Rehovot, Israel) mice are sensitized on the shaved abdominal skin with 100 µl of 2% oxazolone (OX) in acetone/olive oil (4/1, v/v) applied topically. DTH sensitivity is elicited 5 days later as follows: mice are challenged with 20 µl of 0.5% OX (10 µl administered topically to each side of the ear) in acetone/olive oil. A constant area of the ear is measured immediately before challenge and 24 and 48 h later with a Mitutoyo engineer's micrometer. The individual measuring ear swelling is blinded to the identity of the groups of mice. The increment (△) of ear swelling is expressed as the mean in units of 10^-2 mm or 10^-4 inch (+SE) depending on the micrometer that is used. Percent inhibition is calculated as follows: %Inhibition= 1-((Treated-negative control)/(positive control-negative control)) [formula]
Mice are treated with LMWH as in Example 5.1, injected the day before primary sensitization to OX. On the fifth day after sensitization to OX, the mice are challenged to induce a DTH reaction, as described above.
The positive control is the DTH reaction elicited in immunized mice in the absence of treatment with LMWH. The negative control is the background swelling produced by the antigen in naive (non-immunized) mice.
BALB/c mice (at least 5 mice per group) were sensitized on the shaved abdomen with 3% 4-ethoxymethylene-2-phenyl oxazolone (OX; BDH Chemicals, GB) in acetone/olive oil applied topically. DTH sensitivity was elicited 5 days later as follows. Mice were challenged with 0.5% OX in acetone/olive oil. The ear was measured immediately before challenge and 24 h later with Mitutoyo engineer's micrometer (Japan). The individual measuring the swelling of the ear was blinded to the identity of the groups of mice. To interfere with DTH response, the low molecular weight immuno-regulatory fractions, diluted in PBS, were administrated subcutaneously into the back of the treated mice at the indicated time schedules and concentrations. Treated mice were inspected during and after (>2 months) the treatment and no major side-effects were observed clinically.
In particular, CD1 mice (available from the Weizmann Institute Animal Breeding Center, Rehovot, Israel), 4-12 mice per group, were treated as described in Section 5.2 or 6.8.

IDDM of NOD mice = test: Insulin dependent diabetes mellitus (IDDM) of NOD mice; format: in vivo
[4] = test system: secretion of active TNF-α by activated human CD4+ T cells; test: Bioassay of TNF-α activity using human CD4+ T cells derived from PBLs (human PBL bioassay); settings: for Bioassay of TNF Activity, in words: conc range of 1 µg/ml - 0.01 pg/ml, inconsistent = not the same result in all three bioassays; for "R" value: zero assigned where no effect is observed
[5] = CD1 mice, s.c., dose giving Inhmax in the higher effective dose range
[6] = CD1 mice, s.c., higher effective dose range
[7] = CD1 mice, s.c., inhibitory, 0 = no effect

With `N[C@H]1C(O)O[C@H](CO)[C@@H](O)[C@@H]1O` (stereo partly drawn) [GlcN, 2-amino-2-deoxy-D-glucose] the “inhibition of the development of AA, of control levels” value ([1]; s.c. weekly, three dosage levels) was 60-80%, the mortality rate ([2]; 700 rads, by day 30, s.c. 1 day before irradiation and weekly, H-9392 30 ng/mouse, glucosamine 10,000 ng/mouse, saline 100%) was 20% and the “activity in suppressing mortality after irradiation, in words” value ([2]; 750 rads, three administrations, 300 ng H-9392, 1 µg glucosamine) was “moderate activity in suppressing mortality”. For the same compound, the Inhmax ([3]; CD1 mice, s.c.) was 75%, the Dose [3, 5] was 0.4 µg/gm and the “"R" value” [3, 6] was 2.2 x 10^2 % x (µg/gm)^-1. The Inhmax [3, 6] was 88%, the “"R" value” [3, 7] was 6.25 x 10^6 % x (μg/gm)^-1 and the “mice that had become diabetic” value (IDDM of NOD mice; at 4.5 months, H-9392 30 ng/mouse, glucosamine 10,000 ng/mouse s.c., all control mice diabetic) was “about 65%”. The “mice that had died, in words” value (IDDM of NOD mice; by age 5 months, H-9392 30 ng, glucosamine 10,000 ng, all control mice had died) was “about half”.

`O=S(=O)(O)N[C@H]1C(O)O[C@H](COS(=O)(=O)O)[C@@H](O)[C@@H]1O` (stereo partly drawn) [GlcN-2,6S, D-Glucosamine-2,6-disulfate] was tested, and the Inhmax ([3]; CD1 mice, s.c.) was 61% and the DTH ([3]; CD1 mice, s.c.) was 7.7 ± 1 (19.7 ± 1.2) 10^-2 mm.

`O=C(O)C1=C[C@H](O)[C@@H](O)[C@H](O[C@H]2[C@H](O)[C@@H](NS(=O)(=O)O)C(O)O[C@@H]2CO)O1` (some centres unmarked) [H-1145] was tested, and the “effect on the experimental DTH reaction, in words (disaccharide markers)” value (from here on “effect … (disaccharide markers)”) ([3]; CD1 mice, s.c.) was “neutral and N.E” and the “"R" value” [3, 7] was 0 % x (μg/gm)^-1.

`N[C@H]1C(O)O[C@H](CO)[C@@H](O)[C@@H]1OS(=O)(=O)O` (stereo partly drawn) [GlcN-3S, D-Glucosamine-3-sulfate] was tested, and the “effect on the experimental DTH reaction (monosaccharides)” value (“effect … (monosaccharides)” below) ([3]; CD1 mice, s.c.) was “N.E” and the “"R" value” [3, 7] was 0 % x (μg/gm)^-1.

`N[C@H]1C(O)O[C@H](COS(=O)(=O)O)[C@@H](O)[C@@H]1O` (stereo partly drawn) [GlcN-6S, D-Glucosamine-6-sulfate] was tested, and the “effect … (monosaccharides)” value ([3]; CD1 mice, s.c.) was “N.E” and the “"R" value” [3, 7] was 0 % x (μg/gm)^-1.

For `CC(=O)N[C@H]1C(O)O[C@H](COS(=O)(=O)O)[C@@H](O[C@@H]2OC(C(=O)O)=C[C@H](O)[C@H]2OS(=O)(=O)O)[C@@H]1O` (stereo partly drawn) [H-9517, 2-O-sulfate-4-deoxy-4-en-iduronic acid-(α-1,4)-2-deoxy-2-N-acetyl-6-O-sulfateglucosamine], the “Bioassay of TNF Activity, in words” value [4] was “Inconsistent^c”, the Inhmax ([3]; CD1 mice, s.c.) was 62% and the DTH ([3]; CD1 mice, s.c.) was 7.6 ± 1 (20.4 ± 0.7) 10^-2 mm. For the same compound, the “"R" value” [3, 7] was 1.55 x 10^6 % x (μg/gm)^-1.

In the case of `O=S(=O)(O)N[C@H]1C(O)O[C@H](CO)[C@@H](O)[C@@H]1OS(=O)(=O)O` (stereo partly drawn) [GlcN-2,3S, D-Glucosamine-2,3-disulfate], the Inhmax ([3]; CD1 mice, s.c.) is reported as 68%, the DTH ([3]; CD1 mice, s.c.) is reported as 6.3 ± 1 (19.7 ± 1.2) 10^-2 mm and the “"R" value” [3, 7] is reported as 5.67 x 10^4 % x (μg/gm)^-1.

`N[C@H]1C(O)O[C@H](CO)[C@@H](O[C@@H]2OC(C(=O)O)=C[C@H](O)[C@H]2OS(=O)(=O)O)[C@@H]1O` (some centres unmarked) [H-9142] was tested, and the “Bioassay of TNF Activity, in words” value [4] was “Inconsistent”, the “effect … (disaccharide markers)” value ([3]; CD1 mice, s.c.) was “neutral and N.E” and the “"R" value” [3, 7] was 0 % x (μg/gm)^-1.

For `CC(=O)N[C@H]1C(O)O[C@H](CO)[C@@H](O[C@@H]2OC(C(=O)O)=C[C@H](O)[C@H]2O)[C@@H]1O` (stereo partly drawn) [H-0895, 4-deoxy-4-en-iduronic acid-(α-1,4)-2-deoxy-2-N-acetylglucosamine], the “Bioassay of TNF Activity, in words” value [4] was “Inconsistent”, the “AA score against control, in words” value ([1]; 0.1 and 0.4 ng/rat s.c. weekly, day 24) was “not substantially different from control levels” and the “effect on AA, in words” value ([1]; 0.1 and 0.4 ng/rat s.c. weekly, within about 2 weeks of induction) was “increased level of AA development”. For the same compound, the “Inhmax column, value printed with +: augmentation of the DTH swelling” value ([3]; CD1 mice, s.c.) was “+92%”, the “dose giving the augmenting effect on swelling” value ([3]; CD1 mice, s.c.) was “about 1.2 picograms disaccharide per gram mouse” and the DTH ([3]; CD1 mice, s.c.) was 37.3 ± 0.7 (18.9 ± 0.7) 10^-2 mm.

`O=C(O)C1=C[C@H](O)[C@@H](OS(=O)(=O)O)[C@H](O[C@H]2[C@H](O)[C@@H](NS(=O)(=O)O)C(O)O[C@@H]2COS(=O)(=O)O)O1` (stereo partly drawn) [H-9267, 2-O-sulfate-4-deoxy-4-en-iduronic acid-(α-1,4)-2-deoxy-2-N-sulfate-6-O-sulfateglucosamine] was tested, and the “Bioassay of TNF Activity, in words” value [4] was “Inconsistent”, the Inhmax ([3]; CD1 mice, s.c.) was 64% and the DTH ([3]; CD1 mice, s.c.) was 7.2 ± 1 (19.6 ± 1.2) 10^-2 mm. For the same compound, the “"R" value” [3, 7] was 1.60 x 10^5 % x (μg/gm)^-1, the “DTH Response” value ([3]; at the dose giving Inhmax, subcutaneous) was 3.5 ± 1 10^-2mm and the Dose ([3]; dose giving Inhmax, subcutaneous) was 0.0005 µg/gm mouse. The “"R" value” ([3]; inhibitory, maximum % inhibition of DTH divided by the dose giving it, s.c., 0 = no effect) was 160,000 % x (µg/gm)^-1 and the Inhmax ([3]; maximum inhibition of DTH, subcutaneous) was 80%.

With `N[C@H]1C(O)O[C@H](CO)[C@H](O)[C@@H]1O` (stereo partly drawn) [GalN, D-Galactosamine] the “effect on AA, in words” value ([1]; s.c. weekly, different dosages (FIG. 38C)) was “inhibitory effects but to a much lesser degree than that shown by glucosamine”, the Inhmax ([3]; CD1 mice, s.c.) was 50% and the Dose [3, 5] was 0.12 µg/gm. The “"R" value” [3, 6] was 5.58 x 10^2 % x (µg/gm)^-1, the Inhmax [3, 6] was 67% and the “"R" value” [3, 7] was 1.25 x 10^6 % x (μg/gm)^-1.

For `N[C@H]1C(O)O[C@H](COS(=O)(=O)O)[C@@H](O[C@@H]2OC(C(=O)O)=C[C@H](O)[C@H]2O)[C@@H]1O` (some centres unmarked) [H-9017], the “Bioassay of TNF Activity, in words” value [4] was “No effect”, the “"R" value” [4] was 0 % x (pg/ml)^-1 and the “effect … (disaccharide markers)” value ([3]; CD1 mice, s.c.) was “neutral and N.E”. For the same compound, the “"R" value” [3, 7] was 0 % x (μg/gm)^-1.

In the case of `O=S(=O)(O)N[C@H]1C(O)O[C@H](CO)[C@@H](O)[C@@H]1O` (stereo partly drawn) [GlcN-2S, D-Glucosamine-2-N-sulfate], the “effect … (monosaccharides)” value ([3]; CD1 mice, s.c.) is reported as “N.E” and the “"R" value” [3, 7] is reported as 0 % x (μg/gm)^-1.

For `N[C@H]1C(O)O[C@H](COS(=O)(=O)O)[C@@H](O[C@@H]2OC(C(=O)O)=C[C@H](O)[C@H]2OS(=O)(=O)O)[C@@H]1O` (some centres unmarked) [H-8892], the “Bioassay of TNF Activity, in words” value [4] was “No effect”, the “"R" value” [4] was 0 % x (pg/ml)^-1 and the “effect … (disaccharide markers)” value ([3]; CD1 mice, s.c.) was “neutral and N.E”. The “"R" value” [3, 7] was 0 % x (μg/gm)^-1.

For `C[C@@H]1C[C@H]2[C@@H]3CCC4=CC(=O)C=C[C@]4(C)[C@@]3(F)[C@@H](O)C[C@]2(C)[C@@]1(O)C(=O)COP(=O)(O)O` [dexamethasone phosphate], the “course of AA after treatment has ended, in words” value ([1]; 100 µg per rat s.c. daily from day 12) was “suffered a relapse” and the “effect on AA at 30 days post-induction, in words” value ([1]; weekly s.c. from day 12 to day 26, 120 ng disaccharide or 100 µg dexamethasone phosphate per rat) was “only a moderate reduction in the severity of the AA score”.

`CC(=O)N[C@H]1C(O)O[C@H](COS(=O)(=O)O)[C@@H](O[C@@H]2OC(C(=O)O)=C[C@H](O)[C@H]2O)[C@@H]1O` (some centres unmarked) [H-8642] was tested, and the “Bioassay of TNF Activity, in words” value [4] was “Inconsistent”, the “effect … (disaccharide markers)” value ([3]; CD1 mice, s.c.) was “N.E” and the “"R" value” [3, 7] was 0 % x (μg/gm)^-1.

For `CC(=O)N[C@H]1C(O)O[C@H](CO)[C@@H](O[C@@H]2OC(C(=O)O)=C[C@H](O)[C@H]2OS(=O)(=O)O)[C@@H]1O` (some centres unmarked) [H-8767], the “Bioassay of TNF Activity, in words” value [4] was “Inconsistent”, the “effect … (disaccharide markers)” value ([3]; CD1 mice, s.c.) was “N.E” and the “"R" value” [3, 7] was 0 % x (μg/gm)^-1.

For `CC(=O)N[C@H]1C(O)O[C@H](CO)[C@@H](O)[C@@H]1O` (some centres unmarked) [NAc-GlcN, N-Acetylglucosamine], the “effect … (monosaccharides)” value ([3]; CD1 mice, s.c.) was “N.E” and the “"R" value” [3, 7] was 0 % x (μg/gm)^-1.
